Laboratory results taken from patent US8609725B2, “Method of using beta-hydroxy-beta-methylbutyrate for reducing tumor growth rate” (Abbott Laboratories, priority 2004, dated 2013).

Key:
[1] = tested on: mice bearing the MAC16 tumor; assay: Weight loss, food and water intake in mice bearing the MAC16 tumor; assay type: in vivo, NMRI mice; details: doses of HMB greater than 0.125 g/kg, p.o. by gavage daily
Description: This study evaluates the effect of HMB, in comparison with EPA or combination, on weight loss induced by the MAC16 tumor and the mechanisms involved. […] Pure strain male NMRI mice (average weight 25 g) were obtained from our own inbred colony and were transplanted with fragments of the MAC16 tumor s.c. into the flank by means of a trochar, selecting from donor animals with established weight loss as described in Bibby, M. C. et al. Characterization of a transplantable adenocarcinoma of the mouse colon producing cachexia in recipient animals. J. Natl. Cancer Inst., 78: 539-546, 1987. Transplanted animals were fed a rat and mouse breeding diet (Special Diet Services, Witham, United Kingdom) and water ad libitum, and weight loss was evident 10-12 days after tumor implantation. Animals just prior to the development of weight loss were randomized to receive daily either EPA (in olive oil), HMB (in PBS) or the combination as described in the figure legends administered p.o. by gavage, while control animals received either olive oil or PBS. EPA (98% as free acid) was purchased from Biomol Research Laboratories Inc., PA, USA. HMB (as the calcium salt) was obtained from Abbott Laboratories, Columbus, Ohio, USA. All groups contained a minimum of 6 mice. Tumor volume, body weight and food and water intake were monitored daily. […]

proteasome = assay: Functional proteasome 'chymotrypsin-like' enzyme activity in gastrocnemius muscle of MAC16 mice; assay type: in vivo, NMRI mice; details: HMB 0.25 g/kg, EPA 0.6 g/kg or combination, 3 days
Description: Functional proteasome activity was determined by measuring the ‘chymotrypsin-like’ enzyme activity, the predominant proteolytic activity of the β-subunits of the proteasome according to the method of Orino, E. et al. ATP-dependent reversible association of proteasomes with multiple protein components to form 26S complexes that degrade ubiquitinated proteins in human HL-60 cells. FEBS Lett., 284: 206-210, 1991. Muscles were rinsed with ice-cold PBS, minced and sonicated in 20 mM Tris. HCl, pH 7.5, 2 mM ATP, 5 mM MgCl2 and 1 mM DTT. The sonicate was then centrifuged for 10 min at 18,000 g, at 4° C. and the supernatant was used to determine ‘chymotrypsin-like’ enzyme activity by the release of aminomethyl coumarin (AMC) from the fluorogenic substrate succinyl-LLVY-AMC. Activity was measured in the absence and presence of the specific proteasome inhibitor lactacystin (10 μM). Only lactacystin suppressible activity was considered to be proteasome specific.

[2] = tested on: 20S proteasome α-subunits; assay: Western blotting of 20S proteasome α-subunits in gastrocnemius muscle of MAC16 mice; assay type: in vivo, NMRI mice
[3] = tested on: proteasome 20S α subunits, β subunits and p42; assay: Western blot of PIF-induced proteasome subunit expression in C2C12 myotubes; assay type: cell-based, murine; details: 50 μM; PIF at 4.2 and 10 nM
Description: (§1) For Western blot analysis, cytosolic protein (2 to 5 μg) obtained for the above assay were resolved on 10% SDS-PAGE and transferred to 0.45 μm nitrocellulose membrane, which had been blocked with 5% Marvel in PBS, at 4° C. overnight. The primary antibodies were used at a dilution of 1:100 (anti-actin and PKCα); 1:500 (anti-ERK1 and 2); 1:1000 (anti-20S proteasome β-subunit and I-κBα); 1:1500 (anti-20S proteasome α-subunit) or 1:5000 (anti-p42), while the secondary antibodies were used at a dilution of 1:2000. Incubation was carried out for 2 h at room temperature and development was by ECL. Loading was quantitated by actin concentration.

PKCα = biological target: T1, PKCα (Mus musculus, UniProt P20444); assay: PIF-stimulated translocation of PKCα from cytoplasm to plasma membrane in murine myotubes; assay type: cell-based
T1 construct: PIF stimulates translocation of PKCα from the cytoplasm to the plasma membrane; endogenous in cells; host or cells: murine myotubes (C2C12)
Description: as §1
The in vitro study described in Example III above also evaluated the effect of HMB on molecules that are key mediators in the pathway of inflammation. This experiment was conducted as described in Example III.

phospholipase A (PLA) = assay: Arachidonic acid release / PLA activation; assay type: cell-based, murine; details: mechanism statement
Description: For measurement of arachidonic acid release, myotubes in six-well multi dishes containing 2 ml DMEM with 2% HS were labeled for 24 h with 10 μM arachidonic acid (containing 1 μCi of [^3H] arachidonate/ml) (Smith, H. et al. Effect of a cancer cachectic factor on protein synthesis/degradation in murine C2C12 myoblasts: Modulation by eicosapentaenoic acid. Cancer Res., 59: 5507-5513, 1999). Cells were then washed extensively with PBS to remove traces of unincorporated [^3H] arachidonate and either EPA or HMB was added 2 h prior to PIF. After a further 24 h 1 ml of medium was removed to determine the radioactivity released.

attenuation of PIF-stimulated translocation of PKCα (PKCα; 25 μM HMB): less effective
attenuation of PIF-stimulated translocation of PKCα (PKCα; 50 μM): effectively attenuated
activation of PLA or release of AA (phospholipase A (PLA)): not preventing
Compound: CC(C)(O)CC(=O)O [HMB, beta-hydroxy-beta-methylbutyric acid]
weight loss [1]: significant reduction in weight loss
functional proteasome activity ('chymotrypsin-like' enzyme activity) (proteasome): attenuated
expression of 20S proteasome α-subunits ([2]; HMB 0.25 g/kg, EPA 0.6 g/kg or combination, 3 days): attenuated
reduction of protein expression of 20S α-subunits ([2]; summary of Examples I-IV): at least 50%
attenuation of PIF-increased expression of proteasome 20S α subunits, β subunits and p42 [3]: attenuated
